Assay results taken from publication PMC7217877, “N-AS-triggered SPMs are direct regulators of microglia in a model of Alzheimer’s disease” (Nature Communications, 2020).
Several values for one entry are separate records, joined by “and”; a condition that tells them apart may be missing. Equal values may be shown once.

Tests used:
[1] = test system: tumors; design: method as in PMID 27043542, PMID 24566153; settings: cited from earlier work
[2] = test system: APP/PS1 mice; assay: flow cytometry of brain immune cells (Fig 5c-g); assay type: in vivo, mouse; settings: APP/PS1 + N-AS, individual values
Description: Transgenic mouse lines over-expressing the hAPP695swe (APP) and presenilin-1M146V (PS1) mutations were originated from GlaxoSmithKline (Harlow, UK)[32] and maintained as described previously. We purchased 5×FAD mice from Jackson Labs (Stock number. 34840-JAX). Because APP/PS1 and 5xFAD mice show sex differences in disease progression, we used only male mice. To examine possible therapeutic effect of N-AS and aspirin in APP/PS1 mice, the N-AS (30 mg kg^−1, Sigma-Aldrich, 01912) was injected daily s.c. for 8 weeks to 7-months-old APP/PS1 mice until the age of 9 months, and aspirin (2 mg kg^−1, Sigma-Aldrich, A5376)[33] was administrated orally to 7-months-old APP/PS1 mice for 8 weeks. Also, to confirm possible therapeutic efficacy of N-AS in 5×FAD, the N-AS (30 mg kg^−1, Sigma-Aldrich, 01912) was injected daily s.c. for 4 weeks to 3-months-old 5×FAD mice until the age of 4 months. Block randomization method was used to allocate the animals to experimental groups. To eliminate the bias, we were blinded in experimental progress such as data collection and data analysis. Mice were housed at temperature of 22 °C and a 12 h day/12 h night cycle with free access to tap water and food pellets. All protocols were approved by the Kyungpook National University Institutional Animal Care and Use Committee.
Brain microglia polarity and immune cells in brain and blood were analyzed by flow cytometry. Cells from WT, APP/PS1, and APP/PS1 treated with N-AS mice brain were prepared as previously described with minor modifications. Brains of WT, APP/PS1, and APP/PS1 treated with N-AS mice were dissected and immediately transferred in ice-cold HBSS (Gibco). After gentle mincing, the brain was digested in a HBSS solution containing collagenase P (0.2 mg ml^−1, Roche), dispase II (0.8 mg ml^−1, Roche), DNase I (0.01 mg ml^−1, Roche), and collagenase A (0.3 mg ml^−1, Roche) at 37 °C for 1 h under gentle rocking. Digestion was stopped by adding FBS (Gibco) on ice. The supernatants were centrifuged at 250×g for 10 min at 4 °C. The pellet was resuspended in 25% BSA (Gibco)/PBS (Gibco) for myelin removal. Following a centrifugation step at 3000×g for 30 min at 4 °C, the myelin containing supernatant was discarded. The cell pellets were then resuspended in 1 ml of HBSS and filtered through a 40 μm mesh, followed by a washing step in HBSS. The cell pellets were resuspended in 1 ml of red blood cell lysis buffer (BD Biosciences) and incubated at RT for 10 min for lysis of erythrocytes. Subsequently, 2 ml of MACs buffer (Miltenyl Biotec, 130-091-222) was added and centrifuged at 250×g for 10 min at 4 °C. Cells from WT, APP/PS1, and APP/PS1 treated with N-AS mice blood were prepared as previously described with minor modifications. Blood was collected in sodium-heparin tube (BD, 367871) by cardiac puncture. Red blood cells were lysed once at 4 °C for 10 min in 0.15 M NH4Cl ([…] Technologies), washed once with PBS (Gibco), and counted using cell counter (Logos biosystems). […]

CCCCCCCCCCCCC/C=C/[C@@H](O)[C@H](CO)NC(C)=O [N-AS, N-((2S,3R,E)-1,3-Dihydroxyoctadec-4-en-2-yl)acetamide]
apoptosis of tumors [1]: induce apoptosis of tumors | calculated percentage of B220+ B cell [2]: 2.8 and 2.66 and 2.73 and 2.695 | calculated percentage of CD4+ T cell [2]: 2.24 and 2.43 and 2.335 and 2.3825 | calculated percentage of CD45+CD11b+Ly6ChiLy6G- monocyte [2]: 0.84 and 1.06 and 0.92 and 0.95 and 0.99 and 0.935 | calculated percentage of CD45hi CD11b+ Gr-1- F4/80+ CD206+ (anti-inflammatory macrophage) [2]: 0.4 and 0.45 and 0.37 and 0.39 and 0.41 and 0.38 | calculated percentage of CD45hi CD11b+ Gr-1- F4/80+ MHCIIhi (pro-inflammatory macrophage) [2]: 0.46 and 0.45 and 0.59 and 0.4 and 0.52 and 0.495 | calculated percentage of cd45+cd11b+gr1+ neutrophil [2]: 0.452 and 0.46 and 0.34 and 0.504 and 0.4 and 0.422 | calculated percentage of cd45+ly6g+gr1+ neutrophil [2]: 0.99 and 1.19 and 0.83 and 0.97 and 1.01 and 0.9
